Experimental data as given in patent US9493489B2, “Boron-containing small molecules as anti-protozoal agents” (Anacor Pharmaceuticals, Inc., priority 2008, dated 2016).
pIC50: −log10 of the molar value. Each block holds one molecule with its values, some of them ahead of it.

Columns and labels:
[1] = tested on: T. b. brucei or T. b. rhodesiense; assay: Acute Murine Model B; format: in vivo, BALB/C mice; details: after 55 days; 50 mg/kg BID IP for 5 days
Description: Female BALB/C mice were inoculated with 600 parasites of T. b. brucei or 10^4 parasites of T. b. rhodesiense. 24 hrs post-infection, treatment with 6-(4-chlorophenylsulfinyl)benzo[c][1,2]oxaborol-1(3H)-ol was initiated BID for 5 days at 50 mg/kg BID intraperitoneally (IP). Mice were monitored for 40-60 days for survival. After 10 days, 20% of the untreated mice were parasite free and at 20 days, 0% of the untreated mice were parasite free. After 55 days, 100% of mice treated with 6-(4-chlorophenylsulfinyl)benzo[c][1,2]oxaborol-1(3H)-ol were parasite free.

[2] = tested on: LAB 110 EATRO strain of T. b. brucei; assay: Acute Murine Model A; format: in vivo, Swiss Webster mice; details: for mice parasite free: ip, BID for 4 days; for T. brucei Minimum Effective Dose: bid × 4 days
Description: Female Swiss Webster mice were inoculated with 250,000 parasites of the LAB 110 EATRO strain of T. b. brucei. 24 hrs post-infection, treatment was initiated BID for 4 days with 20 mg/kg/dose (40 mg/kg/day) intraperitoneally (IP) or orally (PO), 5 mg/kg BID or 10 mg/kg BID orally (PO). N=3 mice/group. Mice were monitored for 30 days for survival. Pentamidine at 2 mg/kg IP was used as the positive control. After 10 days, 0% of the untreated mice were parasite free. After 10 days, 100% of mice treated with 20 mg/kg, ip, BID of 6-(4-chlorophenylsulfinyl)benzo[c][1,2]oxaborol-1(3H)-ol were parasite free. After 30 days, 100% of mice treated with 10 mg/kg, ip, BID of N-(1-hydroxy-1,3-dihydrobenzo[c][1,2]oxaborol-6-yl)-2-(trifluoromethyl)benzamide were parasite free.

[3] = In vitro metabolism, mouse/human liver microsomes; format: in vitro ADME; details: read-out: in vitro metabolism T1/2 (Mouse/human liver microsomes)
[4] = tested on: cytochrome P450 enzyme (CP1A2, 2C9, 2D6, 3A4, CYP2C19); assay: Cytochrome P450 inhibition; format: in vitro ADME; details: CP1A2, 2C9, 2D6 and 3A4
[5] = tested on: TREU 667 strain of T. b. brucei; assay: Chronic CNS Model; format: in vivo, mice
Description: Mice were infected with 10,000 parasites of the TREU 667 strain of T. b. brucei. Twenty one days post-infection mice were treated with 50 mg/kg of the compound BID for 7 days intraperitoneally (IP). Positive control mice were treated with Berenil on Day 4 post-infection. Negative control mice were treated with Berenil on Day 21. Since Berenil is not able to penetrate the CNS, mice treated at Day 21 are not able to cure the infection. Starting 1 week after the end of treatment, mice are monitored for parasitemia and sacrificed if parasites are detected in the blood. Mice that survive 6 months are considered “cured.”

[6] = In vitro metabolism, mouse S9; format: in vitro ADME; details: S9 fraction, read-out: in vitro metabolism T1/2 (Mouse S9)
P-gp transporter = P-gp transporter (Homo sapiens, UniProt P08183); assay: P-gp transporter substrate assessment; format: in vitro ADME
Chain of P-gp transporter (P08183 whole entry): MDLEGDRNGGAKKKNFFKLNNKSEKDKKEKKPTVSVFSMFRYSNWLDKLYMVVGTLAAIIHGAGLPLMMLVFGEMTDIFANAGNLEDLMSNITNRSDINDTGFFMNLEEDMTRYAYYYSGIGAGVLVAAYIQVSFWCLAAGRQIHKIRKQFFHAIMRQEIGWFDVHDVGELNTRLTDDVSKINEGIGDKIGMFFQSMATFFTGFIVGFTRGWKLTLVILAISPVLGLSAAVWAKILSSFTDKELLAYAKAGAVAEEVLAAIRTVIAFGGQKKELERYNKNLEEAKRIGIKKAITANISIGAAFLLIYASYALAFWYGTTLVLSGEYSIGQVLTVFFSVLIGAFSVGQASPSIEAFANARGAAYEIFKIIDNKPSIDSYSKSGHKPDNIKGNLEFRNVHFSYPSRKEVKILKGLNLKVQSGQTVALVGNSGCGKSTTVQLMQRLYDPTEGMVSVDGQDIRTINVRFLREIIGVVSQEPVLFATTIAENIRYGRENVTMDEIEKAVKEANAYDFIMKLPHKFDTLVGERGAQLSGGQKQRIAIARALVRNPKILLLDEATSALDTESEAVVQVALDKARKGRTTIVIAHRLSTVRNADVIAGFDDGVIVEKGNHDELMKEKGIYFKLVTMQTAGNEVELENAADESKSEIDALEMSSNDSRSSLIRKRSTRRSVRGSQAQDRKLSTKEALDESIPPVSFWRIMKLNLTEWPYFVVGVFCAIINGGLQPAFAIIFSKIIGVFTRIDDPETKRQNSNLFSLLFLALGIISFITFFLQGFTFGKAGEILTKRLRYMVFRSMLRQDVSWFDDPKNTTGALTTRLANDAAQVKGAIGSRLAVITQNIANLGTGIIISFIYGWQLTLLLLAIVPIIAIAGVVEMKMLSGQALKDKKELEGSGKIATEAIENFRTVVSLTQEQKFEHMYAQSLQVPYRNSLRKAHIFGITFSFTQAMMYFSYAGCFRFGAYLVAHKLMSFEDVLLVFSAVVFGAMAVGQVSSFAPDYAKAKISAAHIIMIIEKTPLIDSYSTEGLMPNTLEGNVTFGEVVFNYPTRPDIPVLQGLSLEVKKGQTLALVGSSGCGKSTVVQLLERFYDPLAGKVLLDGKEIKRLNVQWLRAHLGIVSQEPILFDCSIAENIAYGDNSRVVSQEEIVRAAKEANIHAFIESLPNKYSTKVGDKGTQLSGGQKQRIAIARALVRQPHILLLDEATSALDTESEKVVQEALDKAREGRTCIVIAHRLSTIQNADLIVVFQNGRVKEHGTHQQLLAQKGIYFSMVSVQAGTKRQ

[7] = tested on: L. infantum MHOM/MA(BE)/67; assay: Leishmania infantum macrophage screening assay; format: cell-based; details: 120 h, primary screen, reference drugs, primary peritoneal mouse macrophages, 5 days incubation
Description: Parasite and cell cultures. Two Leishmania species (L. infantum MHOM/MA(BE)/67 and L. donovani MHOM/ET/67/L82) were used. The strains were maintained in the Golden Hamster (Mesocricetus auratus). Amastigotes were collected from the spleen of an infected donor hamster using three centrifugation purification steps (300 rpm, keeping the supernatant, 2200 rpm, keeping the supernatants and 3500 rpm, keeping the pellet) and spleen parasite burdens were assessed using the Stauber technique (Stauber L A., Exp Parasitol. 18: 1-11 (1966)). Primary peritoneal mouse macrophages were used as host cell and were collected 2 days after peritoneal stimulation with a 2% potato starch suspension. […]
Assays were performed in 96-well microtiter plates, each well contained 10 μl of the compound dilutions together with 190 μl of macrophage/parasite inoculum (3×10^3 cells+4.5×10^5 parasites/well). […] After 5 days incubation, parasite burdens (mean number of amastigotes/macrophage) were microscopically assessed after staining the cells with a 10% Giemsa solution. The results were expressed as % reduction in parasite burden compared to untreated control wells and an IC50 (50% inhibitory concentration) was calculated. […]
Leishmania infantum MHOM/MA(BE)/67 and L. donovani MHOM/ET/67/L82 strains were used and the IC50-values were determined using an extended dose range (2-fold compound dilutions). […]

half-life [3]: > 5.83 h
inhibition of a cytochrome P450 enzyme [4]: does not inhibit
SMILES: [O-][S+](c1ccc(Cl)cc1)c1ccc2c(c1)B(O)OC2 (stereo not shown) [6-(4-chlorophenylsulfinyl)benzo[c][1,2]oxaborol-1(3H)-ol]
mice parasite free [1]: 100%
mice parasite free ([2]; after 10 days, 20 mg/kg): 100%

SMILES: N=C(N)c1ccc(/N=N/Nc2ccc(C(=N)N)cc2)cc1 [Diminazene, reference compound]
day by which all animals relapsed to exhibit blood parasitemia ([5]; treated on Day 21 post-infection): ≤ 53 days

SMILES: O=C(Nc1ccc2c(c1)B(O)OC2)c1ccccc1C(F)(F)F [H1, N-(1-hydroxy-1,3-dihydrobenzo[c][1,2]oxaborol-6-yl)-2-(trifluoromethyl)benzamide]
T. brucei Minimum Effective Dose ([2]; route ip): 10 mg/kg, bid × 4 days

SMILES: O=C(Nc1ccc2c(c1)B(O)OC2)c1ccccc1Cl [H7, 2-Chloro-N-(1-hydroxy-1,3-dihydro-benzo[c][1,2]oxaborol-6-yl)-benzamide]
mice parasite free for at least 100 days ([5]; additional results): 100%
T. brucei Minimum Effective Dose ([2]; route po): 10 mg/kg, bid × 4 days

SMILES: O=C(Nc1ccc2c(c1)B(O)OC2)c1cc(F)ccc1C(F)(F)F [H17, 5-Fluoro-N-(1-hydroxy-1,3-dihydro-benzo[c][1,2]oxaborol-6-yl)-2-trifluoromethyl-benzamide]
mice parasite free for at least 60 days ([5]; additional results): 100%
T. brucei Minimum Effective Dose ([2]; route po): 5 mg/kg, bid × 4 days

SMILES: O=C(Nc1ccc2c(c1)B(O)OC2)c1ccc(F)cc1C(F)(F)F [H19, 4-Fluoro-N-(1-hydroxy-1,3-dihydro-benzo[c][1,2]oxaborol-6-yl)-2-trifluoromethyl-benzamide]
mice parasite free for at least 100 days ([5]; additional results): 100%
T. brucei Minimum Effective Dose ([2]; route po): 5 mg/kg, bid × 4 days

half-life [6]: 3.33 to 3.75 h
substrate for the P-gp transporter (P-gp transporter): not a substrate
half-life [3]: 5.67 to 6 h
inhibition of a cytochrome P450 enzyme [4]: does not inhibit
SMILES: O=C(Nc1ccc2c(c1)B(O)OC2)c1ccccc1C(F)(F)F [N-(1-hydroxy-1,3-dihydrobenzo[c][1,2]oxaborol-6-yl)-2-(trifluoromethyl)benzamide]
mice with absence of blood parasites through Day 91 ([5]; 50 mg/kg BID for 7 days IP, starting at Day 21 post-infection): 70%
mice parasite free ([2]; after 30 days, 10 mg/kg): 100%

pIC50 [7]: 5.37
SMILES: CCCCCCCCCCCCCCCCOP(=O)([O-])OCC[N+](C)(C)C [miltefosin]
